Experimental data published in ChEMBL document CHEMBL1121678, “Antitumor agents. 44. Bis(helenalinyl) esters and related derivatives as novel potent antileukemic agents” (1981).

Legend:
Assay type in all cases: functional
[1] = tested on: Mus musculus; assay: Antileukemic activity of compound against the P-388 lymphocytic leukemic BDF1 male mice at 8(mg/kg)/day, administered intraperitoneally; 10.5/9.66 (Treated/control)
[2] = tested on: Mus musculus; assay: In vivo antileukemic activity against P-388 lymphocytic leukemia in BDF1 male mice at 60 mg/kg/day intraperitoneal dose expressed as T/C
[3] = tested on: Mus musculus; assay: In vivo antileukemic activity against P-388 lymphocytic leukemia in BDF1 male mice at 8(mg/kg)/day intraperitoneal dose expressed as T/C
[4] = tested on: Mus musculus; assay: Antileukemic activity of compound against the P-388 lymphocytic leukemic BDF1 male mice at 2(mg/kg)/day, administered intraperitoneally; 11.2/9.66 (Treated/control)
[5] = tested on: Mus musculus; assay: Antileukemic activity of compound against the P-388 lymphocytic leukemic BDF1 male mice at 8(mg/kg)/day, administered intraperitoneally; 13.7/9.66 (Treated/control)
[6] = tested on: Mus musculus; assay: Antileukemic activity of compound against the P-388 lymphocytic leukemic BDF1 male mice at 25(mg/kg)/day, administered intraperitoneally; 17.2/9.66 (Treated/control)
[7] = tested on: Mus musculus; assay: In vivo antileukemic activity against P-388 lymphocytic leukemia in BDF1 male mice at 50(mg/kg)/day intraperitoneal dose expressed as T/C
[8] = tested on: Mus musculus; assay: Antileukemic activity of compound against the P-388 lymphocytic leukemic BDF1 male mice at 12.5 mg/kg/day, administered intraperitoneally; 16.0/9.66 (Treated/control); conditions: route intraperitoneal
[9] = tested on: Mus musculus; assay: Antileukemic activity of compound against the P-388 lymphocytic leukemic BDF1 male mice at 50(mg/kg)/day, administered intraperitoneally; 13.4/9.66 (Treated/control)
[10] = tested on: Mus musculus; assay: In vivo antileukemic activity against P-388 lymphocytic leukemia in BDF1 male mice at 12.5 mg/kg/day intraperitoneal dose expressed as T/C
[11] = tested on: Mus musculus; assay: In vivo antileukemic activity against P-388 lymphocytic leukemia in BDF1 male mice at 4(mg/kg)/day intraperitoneal dose expressed as T/C
[12] = tested on: Mus musculus; assay: In vivo antileukemic activity against P-388 lymphocytic leukemia in BDF1 male mice at 2(mg/kg)/day intraperitoneal dose expressed as T/C
[13] = tested on: Mus musculus; assay: In vivo antileukemic activity against P-388 lymphocytic leukemia in BDF1 male mice at 25(mg/kg)/day intraperitoneal dose expressed as T/C
[14] = tested on: Mus musculus; assay: Antileukemic activity of compound against the P-388 lymphocytic leukemic BDF1 male mice at 4(mg/kg)/day, administered intraperitoneally; 10.6/9.66 (Treated/control)
[15] = tested on: Mus musculus; assay: Antileukemic activity of compound against the P-388 lymphocytic leukemic BDF1 male mice at 2(mg/kg)/day, administered intraperitoneally; 14.5/9.66 (Treated/control)
[16] = tested on: Mus musculus; assay: In vivo antileukemic activity against P-388 lymphocytic leukemia in BDF1 male mice at 15(mg/kg)/day intraperitoneal dose expressed as T/C
[17] = tested on: Mus musculus; assay: Antileukemic activity of compound against the P-388 lymphocytic leukemic BDF1 male mice at 4(mg/kg)/day, administered intraperitoneally; 16.2/9.66 (Treated/control)
[18] = tested on: Mus musculus; assay: Antileukemic activity of compound against the P-388 lymphocytic leukemic BDF1 male mice at 60 mg/kg/day, administered intraperitoneally; 3.8/9.66 (Treated/control); conditions: route intraperitoneal
[19] = tested on: Mus musculus; assay: Antileukemic activity of compound against the P-388 lymphocytic leukemic BDF1 male mice at 15(mg/kg)/day, administered intraperitoneally; 9.8/9.66 (Treated/control)
[20] = tested on: Mus musculus; assay: In vivo antileukemic activity against P-388 lymphocytic leukemia in BDF1 male mice at 30(mg/kg)/day intraperitoneal dose expressed as T/C
[21] = tested on: Mus musculus; assay: Antileukemic activity of compound against the P-388 lymphocytic leukemic BDF1 male mice at 8(mg/kg)/day, administered intraperitoneally; 16.7/9.66 (Treated/control)
[22] = tested on: Mus musculus; assay: Antileukemic activity of compound against the P-388 lymphocytic leukemic BDF1 male mice at 30(mg/kg)/day, administered intraperitoneally; 6.7/9.66 (Treated/control)
[23] = tested on: Mus musculus; assay: Antileukemic activity of compound against the P-388 lymphocytic leukemic BDF1 male mice at 15(mg/kg)/day, administered intraperitoneally; 10.8/9.66 (Treated/control)
[24] = tested on: Mus musculus; assay: Antileukemic activity of compound against the P-388 lymphocytic leukemic BDF1 male mice at 8(mg/kg)/day, administered intraperitoneally; 11.9/9.66 (Treated/control)
[25] = tested on: Mus musculus; assay: In vivo antileukemic activity against P-388 lymphocytic leukemia in BDF1 male mice at 12(mg/kg)/day intraperitoneal dose expressed as T/C
[26] = tested on: Mus musculus; assay: Antileukemic activity of compound against the P-388 lymphocytic leukemic BDF1 male mice at 12(mg/kg)/day, administered intraperitoneally; 10.8/9.66 (Treated/control)
[27] = tested on: Mus musculus; assay: Antileukemic activity of compound against the P-388 lymphocytic leukemic BDF1 male mice at 25(mg/kg)/day, administered intraperitoneally; 18.0/9.66 (Treated/control)

`CC1C(=O)O[C@@H]2C[C@@H](C)[C@@H]3CCC(=O)[C@@]3(C)[C@@H](O)[C@H]12` (some centres undefined) was tested, and the “Average survival (days)” value [1] was 10.5 and the T/C [2] was 109%.

In the case of `C=C1C(=O)O[C@@H]2C[C@@H](C)[C@@H]3C=CC(=O)[C@@]3(C)[C@@H](OC(=O)CCC(=O)O[C@H]3[C@@H]4C(=C)C(=O)O[C@@H]4C[C@@H](C)[C@@H]4C=CC(=O)[C@]43C)[C@H]12`, the T/C [3] was 168%, the “Average survival (days)” value [4] was 11.2 and the “Average survival (days)” value [5] was 13.7. For the same molecule, the “Average survival (days)” value [6] was 17.2, the T/C [7] was 140% and the “Average survival (days)” value [8] was 16. The “Average survival (days)” value [9] was 13.4, the T/C [10] was 166% and the T/C [11] was 110%. For the same molecule, the T/C [12] was 116%, the T/C [13] was 178% and the “Average survival (days)” value [14] was 10.6.

In the case of `C=C1C(=O)O[C@@H]2C[C@@H](C)[C@@H]3C=CC(=O)[C@@]3(C)[C@@H](OC(=O)CCCCC(=O)O[C@H]3[C@@H]4C(=C)C(=O)O[C@@H]4C[C@@H](C)[C@@H]4C=CC(=O)[C@]43C)[C@H]12`, the “Average survival (days)” value [15] was 14.5, the T/C [3] was 173% and the T/C [16] was 101%. For the same molecule, the “Average survival (days)” value [17] was 16.2, the “Average survival (days)” value [18] was 3.8 and the T/C [2] was 40%. The “Average survival (days)” value [19] was 9.8, the T/C [20] was 69% and the T/C [11] was 167%. The T/C [12] was 150%, the “Average survival (days)” value [21] was 16.7 and the “Average survival (days)” value [22] was 6.7.

With `C[C@@H]1C[C@H]2OC(=O)[C@@H](C)[C@H]2[C@H](OC(=O)CC(=O)O[C@H]2[C@@H]3[C@H](C)C(=O)O[C@@H]3C[C@@H](C)[C@@H]3C=CC(=O)[C@]32C)[C@]2(C)C(=O)C=C[C@@H]12` the “Average survival (days)” value [23] was 10.8, the T/C [3] was 124% and the T/C [16] was 112%. The “Average survival (days)” value [24] was 11.9, the T/C [25] was 112% and the “Average survival (days)” value [26] was 10.8.

With `O=c1[nH]cc(F)c(=O)[nH]1` [FLUOROURACIL] the T/C [2] was 186% and the “Average survival (days)” value [27] was 18.
